“And” between values parts separate entries of the source, which are not always exact repeats. Identical values can stand only once. “Also recorded” adds a separate entry of the source. Marks after values point to notes of the source that are not given here.
Key:
[1] = Particle size analysis (light obscuration / laser diffraction); type: physicochemical
Source text: The particle size of the taxane particles can be determined by a particle size analyzer instrument and the measurement is expressed as the mean diameter based on a number distribution (number). A suitable particle size analyzer instrument is one which employs the analytical technique of light obscuration, also referred to as photozone or single particle optical sensing (SPOS). A suitable light obscuration particle size analyzer instrument is the ACCUSIZER, such as the ACCUSIZER 780 SIS, available from Particle Sizing Systems, Port Richey, Fla. Another suitable particle size analyzer instrument is one which employs laser diffraction, such as the Shimadzu SALD-7101.
Particle size was analyzed by both light obscuration and laser diffraction methods. An Particle Sizing Systems AccuSizer 780 SIS system was used for the light obscuration method and Shimadzu SALD-7101 was used for the laser diffraction method.
The vials were vortexed for approximately 10 seconds and then sonicated in a sonic bath approximately 1 minute.
The vial was vortexed for approximately 10 seconds and then sonicated in a sonic bath for approximately 2 minutes. This suspension was used for laser diffraction analysis. Unused suspension was poured into a 125 mL particle-free plastic bottle, which was then filled to approximately 100 mL with filtered dispersant. The suspension was vortex for approximately 10 seconds and then sonicated in the sonic bath for approximately 2 minutes. This diluted suspension was used for light obscuration analysis.
A background test was first performed prior to analyzing particles on the AccuSizer 780 SIS. A new particle-free plastic bottle was filled with blank suspension solution by pumping from a reservoir, using a peristaltic pump, through a 0.22 μm Millipore filter and into the bottle. A background analysis was run to ensure the particle/mL count was below 100 particles/mL. […] Once the analysis was completed, the background data was removed and any measurement with less than four counts was removed.
To analyze particles on SALD-7101 using a batch cell, the analysis was started by choosing Manual Measurement. The refractive index was set as 1.5 to 1.7. The batch cell was filled with filtered dispersant just past the etched line. The blank measurement was ran. […] The measurements were executed, and the resulting graph with the highest level of confidence was selected; background was automatically accounted for.

[2] = BET specific surface area (SSA); type: physicochemical
Experimental: As used herein, the “specific surface area” (SSA) is the total surface area of the taxane particle per unit of taxane mass as measured by the Brunauer-Emmett-Teller (“BET”) isotherm by the following method: a known mass between 200 and 300 mg of the analyte is added to a 30 mL sample tube. […] The automated test is then carried out using the BETWIN® software package and the surface area of each sample is subsequently calculated. As will be understood by those of skill in the art, the “taxane particles” can include both agglomerated taxane particles and non-agglomerated taxane particles; since the SSA is determined on a per gram basis it takes into account both the larger agglomerated and smaller non-agglomerated taxane particles in the composition. The agglomerated taxane particles are defined herein as individual taxane particles that are formed by the agglomeration of smaller particles which fuse together forming the larger individual taxane particles, all of which occurs during the processing of the taxane particles. […]
A known mass between 200 and 300 mg of the analyte was added to a 30 mL sample tube. […] The automated test was then carried out using the BETWIN® software package and the surface area of each sample was subsequently calculated.

[3] = Bulk density (not tapped); type: physicochemical
Experimental: As used herein, the “specific surface area” (SSA) is the total surface area of the taxane particle per unit of taxane mass as measured by the Brunauer-Emmett-Teller (“BET”) isotherm by the following method: a known mass between 200 and 300 mg of the analyte is added to a 30 mL sample tube. […] The automated test is then carried out using the BETWIN® software package and the surface area of each sample is subsequently calculated. As will be understood by those of skill in the art, the “taxane particles” can include both agglomerated taxane particles and non-agglomerated taxane particles; since the SSA is determined on a per gram basis it takes into account both the larger agglomerated and smaller non-agglomerated taxane particles in the composition. The agglomerated taxane particles are defined herein as individual taxane particles that are formed by the agglomeration of smaller particles which fuse together forming the larger individual taxane particles, all of which occurs during the processing of the taxane particles. The BET specific surface area test procedure is a compendial method included in both the United States Pharmaceopeia and the European Pharmaceopeia. […]
The mass of the drug was measured to a nearest 0.1 mg, the volume was determined to the nearest 0.1 mL and the density calculated.

[4] = Paclitaxel dissolution study, methanol/water 50/50, USP Apparatus II; type: physicochemical; conditions: methanol/water 50/50 (v/v), 37° C., pH 7, paddle 75 rpm
Experimental: Beads were transferred to a stainless steel mesh container and placed in the dissolution bath containing methanol/water 50/50 (v/v) media at 37° C., pH 7, and a USP Apparatus II (Paddle), operating at 75 rpm. […] Absorbance values of the samples were compared to those of standard solutions prepared in dissolution media to determine the amount of material dissolved. […] Absorbance values of the samples were compared to those of standard solutions prepared in dissolution media to determine the amount of material dissolved.
(§1) Beads were transferred to a stainless steel mesh container and placed in the dissolution bath containing methanol/water 50/50 (v/v) media at 37° C., pH 7, and a USP Apparatus II (Paddle), operating at 75 rpm. At 10, 20, 30, 60, and 90 minutes, a 5 mL aliquot was removed, filtered through a 0.22 μm filter and analyzed on a U(V/V)is spectrophotometer at 227 nm. Absorbance values of the samples were compared to those of standard solutions prepared in dissolution media to determine the amount of material dissolved.

[5] = tested on: UM-UC-3 bladder cancer cell line (ATCC-CRL-1749) tumors; assay: Human bladder cancer (UM-UC-3) mouse xenograft study, tumor volume; type: in vivo, Hsd:Athymic Nude-Foxn1nu nude mice
Experimental: Tumor volume was determined with calipers. […] Animals were weighed 2×/week.
At day 18 after tumor implant, when average tumor size was between 50-325 mm^3, animals were sorted into five groups with equal average tumor sizes and were treated as shown in Table 8 below.
The second treatments (2nd cycle) occurred 7 days following first treatment (1st cycle) and third treatments (3rd cycle) occurred 14 days following the first treatment. The docetaxel solution IV was administered via the tail vein.
The test formulations were prepared as follows: • Vehicle (Control): Diluted 1 ml of the 1% Polysorbate 80/8% Ethanol in normal saline (0.9% Sodium Chloride for Injection) reconstitution solution with 1.5 mL of normal saline (0.9% Sodium Chloride for Injection, USP). […] Vigorously hand shook the vial with inversions for 1 minute. […] Vortexed to mix.
Tumor volumes were determined 2×/week for the duration of the study (61 days). The results of the study are shown in FIG. 4, FIG. 5, FIG. 6, FIG. 7, FIG. 8, FIG. 9, FIG. 10, FIG. 11, FIG. 12 & FIG. 13. […] These observations are also reflected in FIG. 5, FIG. 6, FIG. 7, FIG. 8, FIG. 9, FIG. 12 & FIG. 13.

[6] = tested on: UM-UC-3 bladder cancer cell line (ATCC-CRL-1749) tumors; assay: Xenograft study: histology (H&E) and immunohistochemistry of tumor site tissue; type: in vivo, Hsd:Athymic Nude-Foxn1nu nude mice
[7] = IV docetaxel 3 cycles; of 7 tumors measured; day of death or euthanasia
[8] = Docetaxel dissolution study, methanol/water 15/85, USP Apparatus II; type: physicochemical; conditions: for Docetaxel Dissolution time course: methanol/water 15/85
Experimental: as §1, with “The procedures used to determine the dissolution rates are as follows. […] Beads” for “Beads”, “UV/VIS” for “U(V/V)is”, “dissolved. […] At 5, 15, 30, 60, 120 and 225 minutes, a 5 mL aliquot was removed, filtered through a 0.22 μm filter, and analyzed on a UV/VIS spectrophotometer at 232 nm. Absorbance values of the samples were compared to those of standard solutions prepared in dissolution media to determine the amount of material dissolved.” for “dissolved.”
At 5, 15, 30, 60, 120 and 225 minutes, a 5 mL aliquot was removed, filtered through a 0.22 μm filter, and analyzed on a UV/VIS spectrophotometer at 232 nm. Absorbance values of the samples were compared to those of standard solutions prepared in dissolution media to determine the amount of material dissolved.

[9] = IV Docetaxel 3 cycles, 2 animals

CC(=O)O[C@H]1C(=O)[C@@]2(C)[C@H]([C@H](OC(=O)c3ccccc3)[C@]3(O)C[C@H](OC(=O)[C@H](O)[C@@H](NC(=O)c4ccccc4)c4ccccc4)C(C)=C1C3(C)C)[C@]1(OC(C)=O)CO[C@@H]1C[C@@H]2O [Paclitaxel Raw Material, paclitaxel]
Number Mean (um) [1]: 1.16 um | Volume Mean (um) [1]: 1.29 um | Surface Area (m^2/g) ([2]; BET): 10.4 m^2/g | BET surface area ([2]; Example 1 results text): 7.25 m^2/g | Bulk Density [3]: 0.26 g/mL | Dissolution (30 min) [4]: 18%

CC(=O)O[C@@]12CO[C@@H]1C[C@H](O)[C@@]1(C)C(=O)[C@H](O)C3=C(C)[C@@H](OC(=O)[C@H](O)[C@@H](NC(=O)OC(C)(C)C)c4ccccc4)C[C@@](O)([C@@H](OC(=O)c4ccccc4)[C@H]21)C3(C)C [Docetaxel, docetaxel]
tumor volume ([5]; Docetaxel Solution 30 mg/kg IV, 3 weekly cycles, to Day 61): Tumor volumes decreased initially; also recorded: subsequently increased; also recorded: somewhat effective at treating small tumors, but not very effective in treating large tumors | Necropsy volume (mm^3), per animal ([5]; IV Docetaxel 3 cycles (B1, B3)): 2872 mm^3 and 1652 mm^3 | histology general observations (H&E) ([6]; Docetaxel Solution IV 3 cycles): many viable appearing tumor masses with some macrophage and occasional lymphocytic response along with some tumor necrosis | Maximum tumor size on slide / size of viable nodules (mm), per animal ([6]; IV Docetaxel 3 cycles (cases B1, B3)): 11 mm and 15 mm | Macrophage infiltrate density (CD68): animals graded Mild [6, 9]: 2 | Maximum size of viable invasive carcinoma on the slide: animals with >10 mm [6, 9]: 2* | Percentage of tumor showing necrosis: animals with 11-50% [6, 9]: 1 | Percentage of tumor showing necrosis: animals with 50-90% [6, 9]: 1 | tumors with docetaxel levels above the limit of quantitation (1 ng/g) [7]: 1

CC(=O)O[C@@]12CO[C@@H]1C[C@H](O)[C@@]1(C)C(=O)[C@H](O)C3=C(C)[C@@H](OC(=O)[C@H](O)[C@@H](NC(=O)OC(C)(C)C)c4ccccc4)C[C@@](O)([C@@H](OC(=O)c4ccccc4)[C@H]21)C3(C)C [Docetaxel Raw Material, docetaxel]
Number Mean (um) [1]: 1.58 um | Volume Mean (um) [1]: 5.05 um | Docetaxel Dissolution time course ([8]; 0 minutes): 0.0% | Docetaxel Dissolution time course ([8]; 5 minutes): 3.2% | Docetaxel Dissolution time course ([8]; 15 minutes): 6.9% | Docetaxel Dissolution time course ([8]; 30 minutes): 11.2% | Docetaxel Dissolution time course ([8]; 60 minutes): 16.4% | Docetaxel Dissolution time course ([8]; 120 minutes): 22.4% | Docetaxel Dissolution time course ([8]; 225 minutes): 26.8% | Dissolution (30 min) ([8]; docetaxel, methanol/water 15/85 (v/v), 37° C., pH 7, paddle 75 rpm, 30 min): 11%
